Values quoted from earlier work, collected in PMC6974622, “DeepMalaria: Artificial Intelligence Driven Discovery of Potent Antiplasmodials” (Frontiers in Pharmacology, 2020).
Where “and” joins values, the source holds several entries; their conditions need not be identical. Equal values may be shown once. Where a name gives a salt, the structure may show the parent alone.

Tested on: 3D7
Design: unit not given here
Conditions: cited from earlier work

In the case of `CC1=CC(=C(c2ccc(N)cc2)c2ccc(N)cc2)C=CC1=N.Cl` [Basic fuchsin], the 3D7 is listed as 96.3.

Same assay, conditions: repurposing dataset, 179 approved drugs; ref https://www.nature.com/articles/nchembio806; cited from earlier work

Point of comparison: `CC[C@H]1OC(=O)[C@H](C)[C@@H](O[C@H]2C[C@@](C)(OC)[C@@H](O)[C@H](C)O2)[C@H](C)[C@@H](O[C@@H]2O[C@H](C)C[C@H](N(C)C)[C@H]2O)[C@](C)(O)C[C@@H](C)CN(C)[C@H](C)[C@@H](O)[C@]1(C)O` [Azithromycin], 3D7 80.2. Against it:
- CO[C@H]1/C=C\O[C@@]2(C)Oc3c(C)c(O)c4c(O)c(c(C=O)c(O)c4c3C2=O)NC(=O)/C(C)=C\C=C/[C@H](C)[C@H](O)[C@@H](C)[C@@H](O)[C@@H](C)[C@H](OC(C)=O)[C@@H]1C [3-formyl rifamycin] — higher, 99
- N[C@H](C(=O)O)[C@@H]1CC(Cl)=NO1 [Acivicin] — higher, 98.6
- CC[C@@]1(O)C[C@H](O[C@H]2C[C@H](N(C)C)[C@H](O[C@H]3C[C@H](O)[C@H](O[C@H]4CCC(=O)[C@H](C)O4)[C@H](C)O3)[C@H](C)O2)c2c(cc3c(c2O)C(=O)c2c(O)cccc2C3=O)[C@H]1C(=O)OC [Aclarubicin] — higher, 99.6
- CCCCCCc1ccc(O)cc1O.Nc1c2ccccc2nc2ccccc12 [Acrisorcin] — higher, 98.4
- C=CC(=O)O [Acrylic acid] — lower, 68.8
- CCCCC(CC)CNC(=N)NC(=N)NCCCCCCNC(=N)NC(=N)NCC(CC)CCCC (stereo not shown) [Alexidine] — higher, 99.5
- N=C(N)NC(=O)c1nc(Cl)c(N)nc1N [Amiloride] — lower, 73.2
- Nc1c2ccccc2nc2ccccc12 [Aminacrine] — higher, 97.6
- Nc1nc(N)c2nc(CNc3ccc(C(=O)N[C@@H](CCC(=O)O)C(=O)O)cc3)cnc2n1 [Aminopterin] — higher, 95.7
- CCOC(=O)C1=C(COCCN)NC(C)=C(C(=O)OC)C1c1ccccc1Cl (stereo not shown) [Amlodipine besylate] — lower, 68.2
- C[C@@H]1[C@H](O)[C@@H](C)/C=C/C=C/C=C/C=C/C=C/C=C/C=C/[C@H](O[C@@H]2O[C@H](C)[C@@H](O)[C@H](N)[C@@H]2O)C[C@@H]2O[C@](O)(C[C@@H](O)C[C@@H](O)[C@H](O)CC[C@@H](O)C[C@@H](O)CC(=O)O[C@H]1C)C[C@H](O)[C@H]2C(=O)O [Amphotericin B] — lower, 59.2
- COc1ccc(C[C@H]2NC[C@H](O)[C@H]2OC(C)=O)cc1 [Anisomycin] — higher, 97
- C[C@@H]1CC[C@H]2[C@@H](C)C(=O)O[C@@H]3O[C@@]4(C)CC[C@@H]1[C@]32OO4 [Artemisinin] — higher, 99.1
- C[C@H]1[C@H](OC(=O)CCC(=O)O)O[C@@H]2O[C@@]3(C)CC[C@H]4[C@H](C)CC[C@@H]1[C@@]24OO3 [Artesunate] — higher, 98.7
- COc1ccc(CCN2CCC(Nc3nc4ccccc4n3Cc3ccc(F)cc3)CC2)cc1 [Astemizole] — higher, 97.6
- CC(=O)OC[C@H]1O[C@@H]([S-])[C@H](OC(C)=O)[C@@H](OC(C)=O)[C@@H]1OC(C)=O.CCP(CC)CC.[Au+] [Auranofin] — higher, 99.4
- CC(C)(C)CC(C)(C)c1ccc(OCCOCC[N+](C)(C)Cc2ccccc2)cc1 [Benzethonium chloride] — higher, 98.6
- CCCCCCCCCCCC[N+](C)(C)Cc1ccccc1 [Benzododecinium chloride] — higher, 99.9
- CN1[C@@H]2CC[C@H]1C[C@@H](OC(c1ccccc1)c1ccccc1)C2 [Benztropine mesylate] — lower, 70.6
- C[N+](C)(CCOc1ccccc1)Cc1ccccc1.O=C(O)c1cc2ccccc2cc1[O-] [Bephenium hydroxynaphthoate] — lower, 70.2
- COc1ccc2cc3[n+](cc2c1OC)CCc1cc2c(cc1-3)OCO2 [Berberine] — higher, 98.2
- O.O=C(O)c1cc(O)c2c(c1)[O][Bi][O]2 [Bismuth gallate] — lower, 56.5
- CN(C)CCOC(c1ccccc1)c1ccc(Br)cc1 (stereo not shown) [Bromodiphenhydramine] — lower, 64.2
- Oc1c(Br)cc(Br)c2cccnc12 [Broxyquinoline] — higher, 90.8
- CCCCOc1ccc(CC(=O)NO)cc1 [Bufexamac] — higher, 93.2

In the case of `C[n+]1c2cc(N)ccc2cc2ccc(N)cc21.Nc1ccc2cc3ccc(N)cc3nc2c1.[Cl-]` [Acriflavine], the 3D7 is given as 98.2 and 99.
